Results published in ChEMBL document CHEMBL1201862, “PubChem BioAssay data set” (2004).
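Growth conditions: 96-well plates. Treatment: test compound, 48 hours, 5 concentrations. Analysis: linear interpolation between bracketing concentrations; unreached endpoints set to highest concentration. GI50: concentration for 50% inhibition of growth.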 The source made the active and inactive calls. No stated cut-off is given here; in the data, active = GI50 up to about 1.1 µM and inactive = higher.

Key:
Experiment in all cases: inhibition of tumour cell growth, NCI panel, 48 h
SF-539 = test system: SF-539
TK-10 = test system: TK-10
M14 = test system: M14
ACHN = test system: ACHN
SR = test system: SR
SNB-19 = test system: SNB-19
SK-MEL-28 = test system: SK-MEL-28
SK-OV-3 = test system: SK-OV-3
OVCAR-4 = test system: OVCAR-4
RXF 393 = test system: RXF 393
UACC-257 = test system: UACC-257
HL-60 = test system: HL-60
RPMI-8226 = test system: RPMI-8226
SNB-75 = test system: SNB-75
NCI-H226 = test system: NCI-H226
K562 = test system: K562
LOX IMVI = test system: LOX IMVI
OVCAR-3 = test system: OVCAR-3
CAKI-1 = test system: CAKI-1

Measured: GI50

O=C(CCC(=O)CC(O)(C(F)(F)F)C(F)(F)F)CC(O)(C(F)(F)F)C(F)(F)F
inactive: SF-539 67.6 µM | TK-10 56.9 µM | M14 41.2 µM | ACHN 33.7 µM | SR 47.9 µM | SNB-19 24 µM | SK-MEL-28 > 100 µM | SK-OV-3 > 100 µM | OVCAR-4 33 µM | RXF 393 > 100 µM | UACC-257 34.4 µM | HL-60 33.7 µM | RPMI-8226 26.7 µM | SNB-75 82.8 µM | NCI-H226 18.8 µM | K562 33.4 µM

Cc1ccc(Cc2n[nH]c(=O)n2Nc2ccccc2)cc1
inactive: SF-539 > 100 µM | TK-10 > 100 µM | ACHN > 100 µM | SR > 100 µM | SNB-19 > 100 µM | SK-MEL-28 92.3 µM | LOX IMVI > 100 µM | SK-OV-3 > 100 µM | OVCAR-4 > 100 µM | UACC-257 > 100 µM | HL-60 > 100 µM | RPMI-8226 > 100 µM | OVCAR-3 > 100 µM | CAKI-1 > 100 µM | NCI-H226 > 100 µM | K562 > 100 µM

COC(=O)CC1C(=O)OCc2c1cc1n(c2=O)Cc2c-1nc1ccccc1c2OC (stereo not drawn)
inactive: TK-10 > 100 µM | M14 18 µM | ACHN 23.6 µM | SR 6.05 µM | SNB-19 37 µM | SK-MEL-28 > 100 µM | LOX IMVI 22.5 µM | SK-OV-3 54.5 µM | OVCAR-4 > 100 µM | RXF 393 17.5 µM | UACC-257 > 100 µM | HL-60 18.5 µM | RPMI-8226 > 100 µM | SNB-75 6.53 µM | CAKI-1 4.51 µM | K562 84.1 µM

CN(C)C(=S)/N=c1\ss/c(=N\C(=S)N(C)C)n1Cc1ccco1
inactive: SF-539 > 100 µM | TK-10 > 100 µM | M14 > 100 µM | ACHN > 100 µM | SR > 100 µM | SNB-19 > 100 µM | SK-MEL-28 > 100 µM | SK-OV-3 > 100 µM | OVCAR-4 > 100 µM | RXF 393 > 100 µM | UACC-257 > 100 µM | HL-60 > 100 µM | RPMI-8226 > 100 µM | SNB-75 > 100 µM | CAKI-1 > 100 µM | NCI-H226 > 100 µM | K562 > 100 µM

Cc1ccc(-c2cn3c(nc4ccccc43)c(/C=C/c3ccco3)n2)cc1
inactive: SF-539 > 100 µM | TK-10 > 100 µM | M14 > 100 µM | ACHN > 100 µM | SR 19.6 µM | SNB-19 > 100 µM | SK-MEL-28 58.1 µM | LOX IMVI 69.2 µM | SK-OV-3 > 100 µM | OVCAR-4 56.8 µM | RXF 393 > 100 µM | UACC-257 82.6 µM | HL-60 22.2 µM | RPMI-8226 21 µM | SNB-75 > 100 µM | OVCAR-3 49.8 µM | NCI-H226 > 100 µM | K562 37.7 µM

O=C1CC(O)C=C1Nc1ccc(Cl)cc1 (stereo not drawn)
inactive: SF-539 61.7 µM | TK-10 > 100 µM | M14 10.3 µM | ACHN 6.98 µM | SR 19.1 µM | SNB-19 80.7 µM | SK-MEL-28 56.2 µM | LOX IMVI 25.4 µM | SK-OV-3 > 100 µM | OVCAR-4 60.1 µM | RXF 393 40.5 µM | UACC-257 52.4 µM | HL-60 13.1 µM | SNB-75 26.5 µM | OVCAR-3 71.6 µM | CAKI-1 10.5 µM | NCI-H226 > 100 µM | K562 4.4 µM

Cc1ccc(/C=C/C(=O)c2cccc3ccccc23)cc1
inactive: TK-10 15.2 µM | M14 19.3 µM | ACHN 16.9 µM | SR 11.3 µM | SNB-19 16.1 µM | SK-MEL-28 18 µM | LOX IMVI > 10 µM | SK-OV-3 24.4 µM | OVCAR-4 13.4 µM | RXF 393 12.7 µM | UACC-257 18.5 µM | HL-60 7.18 µM | RPMI-8226 2.49 µM | SNB-75 19.1 µM | OVCAR-3 17.5 µM | CAKI-1 16.4 µM | NCI-H226 17.8 µM | K562 8.65 µM

C[n+]1c2ccccc2c(NC(CS)C(=O)O)c2ccccc21 (stereo not drawn)
inactive: SF-539 20.7 µM | TK-10 36.6 µM | M14 27.5 µM | ACHN 36.5 µM | SR 16.4 µM | SNB-19 40.6 µM | SK-OV-3 23.3 µM | OVCAR-4 29.8 µM | RXF 393 22.3 µM | UACC-257 33.7 µM | HL-60 17.6 µM | RPMI-8226 18.6 µM | SNB-75 24.2 µM | OVCAR-3 17.7 µM | CAKI-1 28.5 µM | NCI-H226 45 µM | K562 28.6 µM

O=C1[C@@H]2C(c3cccc([N+](=O)[O-])c3)=NO[C@@H]2C(=O)N1c1ccc(Cc2ccc(N3C(=O)[C@H]4C(c5cccc([N+](=O)[O-])c5)=NO[C@H]4C3=O)cc2)cc1
inactive: SF-539 35.9 µM | TK-10 > 100 µM | M14 > 100 µM | ACHN > 100 µM | SR > 100 µM | SK-MEL-28 > 100 µM | LOX IMVI > 10 µM | SK-OV-3 > 10 µM | OVCAR-4 > 100 µM | RXF 393 > 100 µM | UACC-257 > 100 µM | RPMI-8226 > 100 µM | SNB-75 > 100 µM | OVCAR-3 > 100 µM | CAKI-1 > 100 µM | K562 > 100 µM

Cc1ccc(S(=O)(=O)N/N=C2\CCCCC23CCC(=O)NC3)cc1 (stereo not drawn)
inactive: SF-539 > 100 µM | TK-10 > 100 µM | M14 > 100 µM | ACHN > 100 µM | SR > 100 µM | SNB-19 > 100 µM | SK-MEL-28 > 100 µM | SK-OV-3 > 100 µM | OVCAR-4 > 100 µM | RXF 393 > 100 µM | UACC-257 > 100 µM | HL-60 > 100 µM | RPMI-8226 > 100 µM | SNB-75 > 100 µM | OVCAR-3 > 100 µM | CAKI-1 > 100 µM | NCI-H226 > 100 µM | K562 > 100 µM

CC1(C)C(=NNC(=O)C[N+](C)(C)C)C(C)(C)C1=NNC(=O)C[N+](C)(C)C
inactive: SF-539 > 100 µM | TK-10 > 100 µM | M14 > 100 µM | ACHN > 100 µM | SR > 100 µM | SNB-19 > 100 µM | SK-MEL-28 > 100 µM | LOX IMVI 72.9 µM | SK-OV-3 > 100 µM | OVCAR-4 > 100 µM | RXF 393 > 100 µM | UACC-257 > 100 µM | HL-60 > 100 µM | SNB-75 > 100 µM | OVCAR-3 > 100 µM | CAKI-1 > 100 µM | NCI-H226 > 100 µM | K562 > 100 µM
